Measurements: patent publication US6906205B2, “Spiro and dispiro 1,2,4-trioxolane antimalarials” (Medicines for Malaria Venture MMV, priority 2002, dated 2005)
In brackets after ≈: the same amount, converted by molar mass.

The compounds below were run on Schistosoma mansoni adult schistosomes (49-day-old) (assay: effect on adult schistosomes (49-day-old) in mice). Details: single 200 mg/kg per os.
Format: in vivo
Description: Mice were infected with 100 Schistosoma mansoni cercariae […]. Each group was treated per os with OZ compounds at single doses of 200, 400, and 600 mg/kg. […] All groups were killed 4 weeks after treatment and the liver and intestine were removed and separated. The liver and intestine were compressed and alive male and female worms could be seen and counted.

| SMILES | % reduction of adult worms growth at day 49 after per os application of 200 mg/kg, TWR (%) | adult worms at day 49, per os 200 mg/kg, DEAD WORM (%) |
| --- | --- | --- |
| C1CC2(CCN1)OOC1(O2)C2CC3CC(C2)CC1C3.Cl (centres unmarked) [OZ80] | 0% | 3% |

Same assay, conditions: single 400 mg/kg per os

| SMILES | % reduction of adult worms growth at day 49 after per os application of 400 mg/kg, TWR (%) | adult worms at day 49, per os 400 mg/kg, DEAD WORM (%) |
| --- | --- | --- |
| O=C1CN(C[C@H]2CC[C@]3(CC2)OOC2(O3)C3CC4CC(C3)CC2C4)CCN1 (some centres unmarked) [OZ285] | 17% | 22% |
| O=C(O)C1CCC2(CC1)OOC1(O2)C2CC3CC(C2)CC1C3 (centres unmarked) [OZ71] | 0% | 16% |
| O=C1CCC2(CC1)OOC1(CCCCCCCCCCC1)O2 [OZ21] | 0/0% | 0/0% |
| O=[N+]([O-])c1ccc(NN=C2CCC3(CC2)OOC2(O3)C3CC4CC(C3)CC2C4)c([N+](=O)[O-])c1 (centres unmarked) [OZ29] | 0/0% | 0/0% |
| O=C(O)C1CCN(C(=O)C[C@H]2CC[C@]3(CC2)OO[C@]2(O3)C3CC4CC(C3)CC2C4)CC1 [OZ312] | 16% | 9% |

What follows are compounds tested on Schistosoma mansoni 21-day-old schistosomules (assay: effect on 21-day-old schistosomules in mice). Details: single 200 mg/kg per os, female mice.
Format: in vivo
Description: All groups were killed 4 weeks after treatment and the liver and intestine were removed and separated. The liver and intestine were compressed and alive male and female worms could be seen and counted. The effect of the compounds was evaluated by mean total and female worm burden.

| SMILES | % reduction of schistosomule growth at day 21 after per os application of 200 mg/kg, FWR (%) | % reduction of schistosomule growth at day 21 after per os application of 200 mg/kg, TWR (%) |
| --- | --- | --- |
| O=C1CN(C[C@H]2CC[C@]3(CC2)OOC2(O3)C3CC4CC(C3)CC2C4)CCN1 (some centres unmarked) [OZ285] | 85% | 86% |
| O=C(O)C1CCC2(CC1)OOC1(O2)C2CC3CC(C2)CC1C3 (centres unmarked) [OZ71] | 85% | 91% |
| C1CC2(CCN1)OOC1(O2)C2CC3CC(C2)CC1C3.Cl (centres unmarked) [OZ80] | 75% | 79% |
| O=C1CCC2(CC1)OOC1(CCCCCCCCCCC1)O2 [OZ21] | 20% | 18% |
| O=[N+]([O-])c1ccc(NN=C2CCC3(CC2)OOC2(O3)C3CC4CC(C3)CC2C4)c([N+](=O)[O-])c1 (centres unmarked) [OZ29] | 20% | 28% |
| O=C(O)C1CCN(C(=O)C[C@H]2CC[C@]3(CC2)OO[C@]2(O3)C3CC4CC(C3)CC2C4)CC1 [OZ312] | 93% | 94% |

Each compound was assayed on P. falciparum NF54 strain (sensitive to standard antimalarials) (assay: semiautomated microdilution assay, [3H]-hypoxanthine incorporation, NF54 strain). Details: NF54 strain, 72 h incubation.
Format: cell-based, Plasmodium falciparum
How it was run: (§1)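 Logit regression analysis was used to estimate IC50 values. Parasites were intraerythrocytic forms from asynchronous stock cultures, and compounds were tested by semiautomated microdilution.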

| SMILES | IC50 (ng/ml) NF54 |
| --- | --- |
| O=C1CN(C[C@H]2CC[C@]3(CC2)OOC2(O3)C3CC4CC(C3)CC2C4)CCN1 (some centres unmarked) [OZ285] | 1.8 ng/mL (≈ 0.00478 µM) |
| O=C(O)C1CCC2(CC1)OOC1(O2)C2CC3CC(C2)CC1C3 (centres unmarked) [OZ71] | 3.7 ng/mL (≈ 0.012 µM) |
| C1CC2(CCN1)OOC1(O2)C2CC3CC(C2)CC1C3.Cl (centres unmarked) [OZ80] | 0.34 ng/mL |
| O=C1CCC2(CC1)OOC1(CCCCCCCCCCC1)O2 [OZ21] | 25 ng/mL (≈ 0.0805 µM) |
| O=[N+]([O-])c1ccc(NN=C2CCC3(CC2)OOC2(O3)C3CC4CC(C3)CC2C4)c([N+](=O)[O-])c1 (centres unmarked) [OZ29] | 13 ng/mL (≈ 0.0284 µM) |
| O=C(O)C1CCN(C(=O)C[C@H]2CC[C@]3(CC2)OO[C@]2(O3)C3CC4CC(C3)CC2C4)CC1 [OZ312] | 27 ng/mL (≈ 0.0623 µM) |

Each compound was assayed on ANKA strain of P. berghei (assay: single dose STI in vivo screen in infected mice). Details: percent reduction in parasitemia day 3 post-infection; single 3 mg/kg po in SSV.
Set-up: species or system Plasmodium berghei
How it was run: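 Groups of 3-5 Moro SPF or NMRI mice infected with the ANKA strain of P. berghei received a single dose of trioxolane on day one post-infection. The compound was given in 3% ethanol and 7% Tween 80 or in SSV (0.5% w/v CMC, 0.5% v/v benzyl alcohol, 0.4% v/v Tween 80, 0.9% w/v sodium chloride in water). Antimalarial activity was scored as percent reduction in parasitemia on day three and as survival time versus untreated controls. Survival to day 30 counted as cure.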

| SMILES | Activity (%) 3 mg/kg SSV po |
| --- | --- |
| O=C1CN(C[C@H]2CC[C@]3(CC2)OOC2(O3)C3CC4CC(C3)CC2C4)CCN1 (some centres unmarked) [OZ285] | 72% |
| O=C(O)C1CCN(C(=O)C[C@H]2CC[C@]3(CC2)OO[C@]2(O3)C3CC4CC(C3)CC2C4)CC1 [OZ312] | 13% |

Same assay, conditions: percent reduction in parasitemia day 3 post-infection; single 10 mg/kg po in 3% ethanol and 7% Tween 80; mice

| SMILES | Activity (%) po |
| --- | --- |
| C1CC2(CCN1)OOC1(O2)C2CC3CC(C2)CC1C3.Cl (centres unmarked) [OZ80] | 59% |
| O=C1CCC2(CC1)OOC1(CCCCCCCCCCC1)O2 [OZ21] | 0/NA/0% |
| O=[N+]([O-])c1ccc(NN=C2CCC3(CC2)OOC2(O3)C3CC4CC(C3)CC2C4)c([N+](=O)[O-])c1 (centres unmarked) [OZ29] | 0/NA/0% |

Same assay, conditions: percent reduction in parasitemia day 3 post-infection; single 10 mg/kg po in 3% ethanol and 7% Tween 80; mice; 10 mg/kg

| SMILES | Activity (%) po |
| --- | --- |
| O=C(O)C1CCC2(CC1)OOC1(O2)C2CC3CC(C2)CC1C3 (centres unmarked) [OZ71] | 98% |

Same assay, conditions: percent reduction in parasitemia day 3 post-infection; single 10 mg/kg po in SSV

| SMILES | Activity (%) 10 mg/kg SSV po |
| --- | --- |
| O=C(O)C1CCN(C(=O)C[C@H]2CC[C@]3(CC2)OO[C@]2(O3)C3CC4CC(C3)CC2C4)CC1 [OZ312] | 43% |

Same assay, conditions: percent reduction in parasitemia day 3 post-infection; single 10 mg/kg sc in 3% ethanol and 7% Tween 80; mice

| SMILES | Activity (%) sc |
| --- | --- |
| C1CC2(CCN1)OOC1(O2)C2CC3CC(C2)CC1C3.Cl (centres unmarked) [OZ80] | 84% |
| O=C1CCC2(CC1)OOC1(CCCCCCCCCCC1)O2 [OZ21] | 0/NA/0% |
| O=[N+]([O-])c1ccc(NN=C2CCC3(CC2)OOC2(O3)C3CC4CC(C3)CC2C4)c([N+](=O)[O-])c1 (centres unmarked) [OZ29] | 0/NA/0% |

Same assay, conditions: percent reduction in parasitemia day 3 post-infection; single 10 mg/kg sc in 3% ethanol and 7% Tween 80; mice; 10 mg/kg

| SMILES | Activity (%) sc |
| --- | --- |
| O=C(O)C1CCC2(CC1)OOC1(O2)C2CC3CC(C2)CC1C3 (centres unmarked) [OZ71] | 97% |

Same assay, conditions: percent reduction in parasitemia day 3 post-infection; single po dose in standard suspending vehicle (SSV); mice

| SMILES | Activity (%) SSVpo |
| --- | --- |
| O=C(O)C1CCC2(CC1)OOC1(O2)C2CC3CC(C2)CC1C3 (centres unmarked) [OZ71] | 98% |

Same assay, conditions: single 10 mg/kg po in 3% ethanol and 7% Tween 80; untreated control 5.6 ± 0.3

| SMILES | Survival (days) po |
| --- | --- |
| C1CC2(CCN1)OOC1(O2)C2CC3CC(C2)CC1C3.Cl (centres unmarked) [OZ80] | 6.3 days |
| O=C1CCC2(CC1)OOC1(CCCCCCCCCCC1)O2 [OZ21] | 5.0 days |
| O=[N+]([O-])c1ccc(NN=C2CCC3(CC2)OOC2(O3)C3CC4CC(C3)CC2C4)c([N+](=O)[O-])c1 (centres unmarked) [OZ29] | 5.0/NA/5.0 days |

Same assay, conditions: single 10 mg/kg po in 3% ethanol and 7% Tween 80; untreated control 5.6 ± 0.3; 10 mg/kg

| SMILES | Survival (days) po |
| --- | --- |
| O=C(O)C1CCC2(CC1)OOC1(O2)C2CC3CC(C2)CC1C3 (centres unmarked) [OZ71] | 7.3 days |

Same assay, conditions: single 10 mg/kg po in SSV

| SMILES | Survival (days) 10 mg/kg SSV po |
| --- | --- |
| O=C1CN(C[C@H]2CC[C@]3(CC2)OOC2(O3)C3CC4CC(C3)CC2C4)CCN1 (some centres unmarked) [OZ285] | 8.7 days |
| O=C(O)C1CCN(C(=O)C[C@H]2CC[C@]3(CC2)OO[C@]2(O3)C3CC4CC(C3)CC2C4)CC1 [OZ312] | 7.2 days |

Same assay, conditions: single 10 mg/kg sc in 3% ethanol and 7% Tween 80; untreated control 5.6 ± 0.3

| SMILES | Survival (days) sc |
| --- | --- |
| C1CC2(CCN1)OOC1(O2)C2CC3CC(C2)CC1C3.Cl (centres unmarked) [OZ80] | 7.7 days |
| O=C1CCC2(CC1)OOC1(CCCCCCCCCCC1)O2 [OZ21] | 6.0 days |
| O=[N+]([O-])c1ccc(NN=C2CCC3(CC2)OOC2(O3)C3CC4CC(C3)CC2C4)c([N+](=O)[O-])c1 (centres unmarked) [OZ29] | 5.0/NA/5.0 days |

Same assay, conditions: single 10 mg/kg sc in 3% ethanol and 7% Tween 80; untreated control 5.6 ± 0.3; 10 mg/kg

| SMILES | Survival (days) sc |
| --- | --- |
| O=C(O)C1CCC2(CC1)OOC1(O2)C2CC3CC(C2)CC1C3 (centres unmarked) [OZ71] | 8.3 days |

Same assay, conditions: single po dose in SSV; untreated control 5.6 ± 0.3

| SMILES | Survival (days) SSVpo |
| --- | --- |
| O=C(O)C1CCC2(CC1)OOC1(O2)C2CC3CC(C2)CC1C3 (centres unmarked) [OZ71] | 6.7 days |

The compounds below were run on P. falciparum K1 strain (Thailand resistant to chloroquine) (assay: semiautomated microdilution assay, [3H]-hypoxanthine incorporation, K1 strain). Details: K1 strain, 72 h incubation.
Format: cell-based, Plasmodium falciparum
How it was run: as §1

| SMILES | IC50 (ng/ml) K1 |
| --- | --- |
| O=C1CN(C[C@H]2CC[C@]3(CC2)OOC2(O3)C3CC4CC(C3)CC2C4)CCN1 (some centres unmarked) [OZ285] | 1.3 ng/mL (≈ 0.00345 µM) |
| O=C(O)C1CCC2(CC1)OOC1(O2)C2CC3CC(C2)CC1C3 (centres unmarked) [OZ71] | 4.5 ng/mL (≈ 0.0146 µM) |
| C1CC2(CCN1)OOC1(O2)C2CC3CC(C2)CC1C3.Cl (centres unmarked) [OZ80] | 0.15 ng/mL |
| O=C1CCC2(CC1)OOC1(CCCCCCCCCCC1)O2 [OZ21] | 14 ng/mL (≈ 0.0451 µM) |
| O=[N+]([O-])c1ccc(NN=C2CCC3(CC2)OOC2(O3)C3CC4CC(C3)CC2C4)c([N+](=O)[O-])c1 (centres unmarked) [OZ29] | 9.7 ng/mL (≈ 0.0212 µM) |
| O=C(O)C1CCN(C(=O)C[C@H]2CC[C@]3(CC2)OO[C@]2(O3)C3CC4CC(C3)CC2C4)CC1 [OZ312] | 19 ng/mL (≈ 0.0438 µM) |
